From ChEMBL document CHEMBL3044727, “Syntheses, spectral, crystallographic, antimicrobial, and antioxidant studies of few Mannich bases” (2012)

Assays:
Format in all cases: functional
[1] = system: Radical scavenging activity; assay: Antioxidant activity assessed as DPPH radical scavenging activity at 100 ug
[2] = Antioxidant activity assessed as inhibition of linoleic acid peroxidation at 125 ug by FTC method
[3] = Antioxidant activity assessed as inhibition of linoleic acid peroxidation at 100 ug by FTC method
[4] = Antioxidant activity assessed as inhibition of linoleic acid peroxidation at 75 ug by FTC method
[5] = system: Aspergillus oryzae; assay: Antimicrobial activity against Aspergillus oryzae MTCC 3782 at 60 ug after 48 hr by streak plate method; conditions: MTCC 3782, 48 h, read-out: IZ
[6] = system: Bacillus subtilis; assay: Antimicrobial activity against Bacillus subtilis MTCC 4905 at 60 ug after 24 hr by streak plate method; conditions: MTCC 4905, 24 h, read-out: IZ
[7] = system: Radical scavenging activity; assay: Antioxidant activity assessed as DPPH radical scavenging activity at 25 ug
[8] = system: Radical scavenging activity; assay: Antioxidant activity assessed as DPPH radical scavenging activity at 125 ug
[9] = system: Aspergillus oryzae; assay: Antimicrobial activity against Aspergillus oryzae MTCC 3782 at 40 ug after 48 hr by streak plate method; conditions: MTCC 3782, 48 h, read-out: IZ
[10] = system: Salmonella typhi; assay: Antimicrobial activity against Salmonella enterica subsp. enterica serovar Typhi MTCC 3917 at 60 ug after 24 hr by streak plate method; conditions: MTCC 3917, 24 h, read-out: IZ
[11] = system: Radical scavenging activity; assay: Antioxidant activity assessed as DPPH radical scavenging activity at 75 ug
[12] = Antioxidant activity assessed as inhibition of linoleic acid peroxidation at 25 ug by FTC method
[13] = system: Escherichia coli; assay: Antimicrobial activity against Escherichia coli MTCC 3261 at 40 ug after 24 hr by streak plate method; conditions: MTCC 3261, 24 h, read-out: IZ
[14] = Antioxidant activity assessed as inhibition of linoleic acid peroxidation by FTC method
[15] = system: Aspergillus oryzae; assay: Antimicrobial activity against Aspergillus oryzae MTCC 3782 at 20 ug after 48 hr by streak plate method; conditions: MTCC 3782, 48 h, read-out: IZ
[16] = system: Salmonella typhi; assay: Antimicrobial activity against Salmonella enterica subsp. enterica serovar Typhi MTCC 3917 at 40 ug after 24 hr by streak plate method; conditions: MTCC 3917, 24 h, read-out: IZ
[17] = system: Radical scavenging activity; assay: Antioxidant activity assessed as DPPH radical scavenging activity at 50 ug
[18] = Antioxidant activity assessed as inhibition of linoleic acid peroxidation at 50 ug by FTC method
[19] = system: Radical scavenging activity; assay: Antioxidant activity assessed as DPPH radical scavenging activity
[20] = system: Escherichia coli; assay: Antimicrobial activity against Escherichia coli MTCC 3261 at 60 ug after 24 hr by streak plate method; conditions: MTCC 3261, 24 h, read-out: IZ
[21] = system: Aspergillus fumigatus; assay: Antimicrobial activity against Aspergillus fumigatus MTCC 6594 at 60 ug after 48 hr by streak plate method; conditions: MTCC 6594, 48 h, read-out: IZ
[22] = system: Bacillus subtilis; assay: Antimicrobial activity against Bacillus subtilis MTCC 4905 at 40 ug after 24 hr by streak plate method; conditions: MTCC 4905, 24 h, read-out: IZ
[23] = system: Salmonella typhi; assay: Antimicrobial activity against Salmonella enterica subsp. enterica serovar Typhi MTCC 3917 at 20 ug after 24 hr by streak plate method; conditions: MTCC 3917, 24 h, read-out: IZ
[24] = system: Aspergillus fumigatus; assay: Antimicrobial activity against Aspergillus fumigatus MTCC 6594 at 40 ug after 48 hr by streak plate method; conditions: MTCC 6594, 48 h, read-out: IZ
[25] = system: Bacillus subtilis; assay: Antimicrobial activity against Bacillus subtilis MTCC 4905 at 20 ug after 24 hr by streak plate method; conditions: MTCC 4905, 24 h, read-out: IZ
[26] = system: Escherichia coli; assay: Antimicrobial activity against Escherichia coli MTCC 3261 at 20 ug after 24 hr by streak plate method; conditions: MTCC 3261, 24 h, read-out: IZ
[27] = system: Aspergillus fumigatus; assay: Antimicrobial activity against Aspergillus fumigatus MTCC 6594 at 20 ug after 48 hr by streak plate method; conditions: MTCC 6594, 48 h, read-out: IZ

| Molecule | Activity [1] [%] | inhibition [2] [%] | inhibition [3] [%] | inhibition [4] [%] | zone of inhibition at 60 µg/disc [5] [mm] | zone of inhibition at 60 µg/disc [6] [mm] | Activity [7] [%] | Activity [8] [%] | zone of inhibition at 40 µg/disc [9] [mm] | zone of inhibition at 60 µg/disc [10] [mm] | Activity [11] [%] | inhibition [12] [%] | zone of inhibition at 40 µg/disc [13] [mm] | inhibition [14] | zone of inhibition at 40 µg/disc [16] [mm] | Activity [17] [%] | inhibition [18] [%] | zone of inhibition at 60 µg/disc [20] [mm] | zone of inhibition at 60 µg/disc [21] [mm] | zone of inhibition at 40 µg/disc [22] [mm] | other results |
| --- | --- | --- | --- | --- | --- | --- | --- | --- | --- | --- | --- | --- | --- | --- | --- | --- | --- | --- | --- | --- | --- |
| O=C1CCC(=O)N1C(Nc1ccccn1)c1ccccc1 (stereo unspecified) | 23 | 21 | 19 | 18 | 9 | 12 | 16 | 25 | 10 | 6 | 20 | 15 | 4 | Dose-dependent effect | 1 | 19 | 17 | 7 | 3 | 7 | zone of inhibition at 20 µg/disc [15]: 12 mm; Activity [19]: Dose-dependent effect |
| O=C1CCC(=O)N1CNc1ccccc1 | 20 | 20 | 19 | 16 | – | – | 10 | 23 | – | – | 18 | 12 | – | – | – | 14 | 15 | – | – | – | – |
| Oc1cc2ccccc2cc1Cn1cccc1 | 36 | 19 | 17 | 16.2 | 14 | 16 | 32 | 38 | 10 | 23 | 35 | 10 | 4 | Dose-dependent effect | 22 | 33 | 13 | 14 | 3 | 14 | Activity [19]: Dose-dependent effect; zone of inhibition at 20 µg/disc [23]: 22 mm |
| O=C1c2ccccc2C(=O)N1CNc1ccccc1 | 22 | 16 | 15 | 15.6 | 4 | 14 | 15 | 24 | 7 | 5 | 20 | 11 | 3 | Dose-dependent effect | 5 | 19 | 13 | 8 | 2 | 9 | zone of inhibition at 20 µg/disc [15]: 7 mm; Activity [19]: Dose-dependent effect; zone of inhibition at 20 µg/disc [23]: 3 mm |
| O=C1CCC(=O)N1C(Nc1ccccc1)c1ccccc1 (stereo unspecified) | 18 | 22 | 20 | 19 | 15 | 17 | 9 | 25 | 12 | 11 | 17 | 16 | 2 | Dose-dependent effect | 6 | 14 | 17 | 16 | 6 | 10 | zone of inhibition at 20 µg/disc [15]: 3 mm; Activity [19]: Dose-dependent effect |
| VITAMIN E | 50 | 33 | 29 | 27 | – | – | 45 | 51 | – | – | 49 | 23 | – | – | – | 47 | 26 | – | – | – | – |
| O=C1O[C@H]([C@@H](O)CO)C(O)=C1O | 58 | 37 | 35 | 31.2 | – | – | 53 | 59 | – | – | 57 | 27.2 | – | – | – | 54 | 27 | – | – | – | – |
| O=C(NC(c1ccccc1)c1cc2ccccc2cc1O)NC(c1ccccc1)c1cc2ccccc2cc1O (stereo unspecified) | 37 | 24 | 19 | 18.3 | 12 | 3 | 28 | 40 | 8 | 23 | 35 | 17 | 8 | Dose-dependent effect | 21 | 27 | 17 | 9 | 11 | 4 | zone of inhibition at 40 µg/disc [24]: 6 mm; zone of inhibition at 20 µg/disc [25]: 4 mm; Activity [19]: Dose-dependent effect; zone of inhibition at 20 µg/disc [23]: 20 mm |
| CN[C@@H]1[C@H](O[C@H]2[C@H](O[C@H]3[C@H](O)[C@@H](O)[C@H](N=C(N)N)[C@@H](O)[C@@H]3N=C(N)N)O[C@@H](C)[C@]2(O)C=O)O[C@@H](CO)[C@H](O)[C@H]1O [STREPTOMYCIN] | – | – | – | – | – | 41 | – | – | – | 40 | – | – | 39 | – | 40 | – | – | 45 | – | 33 | zone of inhibition at 20 µg/disc [26]: 31 mm; zone of inhibition at 20 µg/disc [25]: 30 mm; zone of inhibition at 20 µg/disc [23]: 36 mm |
| C[C@@H]1[C@H](O)[C@@H](C)/C=C/C=C/C=C/C=C/C=C/C=C/C=C/[C@H](O[C@@H]2O[C@H](C)[C@@H](O)[C@H](N)[C@@H]2O)C[C@@H]2O[C@](O)(C[C@@H](O)C[C@@H](O)[C@H](O)CC[C@@H](O)C[C@@H](O)CC(=O)O[C@H]1C)C[C@H](O)[C@H]2C(=O)O [AMPHOTERICIN B] | – | – | – | – | 16 | – | – | – | 12 | – | – | – | – | – | – | – | – | – | 30 | – | zone of inhibition at 40 µg/disc [24]: 24 mm; zone of inhibition at 20 µg/disc [15]: 12 mm; zone of inhibition at 20 µg/disc [27]: 26 mm |
| CC1(C)S[C@@H]2[C@H](NC(=O)Cc3ccccc3)C(=O)N2[C@H]1C(=O)O [PENICILLIN G] | – | – | – | – | – | 26 | – | – | – | 24 | – | – | 30 | – | 24 | – | – | 31 | – | 26 | zone of inhibition at 20 µg/disc [26]: 24 mm; zone of inhibition at 20 µg/disc [25]: 25 mm; zone of inhibition at 20 µg/disc [23]: 20 mm |
| O=C1CCC(=O)N1CNc1ccccn1 | 27 | 21 | 20 | 19 | 15 | 8 | 17 | 36 | – | – | 22 | 18 | 7 | Dose-dependent effect | – | 18 | 19 | 12 | 13 | 5 | zone of inhibition at 40 µg/disc [24]: 7 mm; Activity [19]: Dose-dependent effect |
